# According to patent US20070219180A1, “Muscle Relaxtion Accelerator and Therapeutic Agent for Muscular Tissue Diseases Such as Muscle Relaxation Failure” (priority 2004, published 2007):
# Where “and” joins values, the source holds several entries; their conditions need not be identical. Equal values may be shown once.
# Experiments:
# myosin light chains = experiment: Experiment 5: amount of precipitate of myosin light chains; type: binding, swine; settings: concentration of the compound 10^−3 mol
# Protocol: In this experiment, the effects of the compound were studied on the amount of precipitate of myosin light chains, which is a component of the troponin test sample used in Experiment 4.
# A sample buffer for polyacrylamide gel electrophoresis (SDS-PAGE) was added to each washed test precipitate, which was prepared in the manner described above, and mixed well to suspend the test precipitate. The resulting suspension was electrophoresed on a gel (PAG MINI “No. 1” 10/20) for about 1 hour at 40 mA. After electrophoresis, the suspension was silver-stained using “Daiichi” 2D-silver staining reagent (Daiichi Pure Chemicals Co., Ltd), and washed with distilled water and dried. The amount of precipitate in each silver-stained protein band obtained by gel electrophoresis was quantitated using a densitometer. […] The protein band from gel electrophoresis was stained using a reagent for mass spectrometry (silver staining reagent for mass spectrometry, Wako Pure Chemical Industries Ltd.), and a peptide fragment obtained from the protein that gave the band in gel electrophoresis was analyzed using high performance liquid chromatography (MAGIC2002, Michrom BioResources, Inc, USA).
# white rabbits = experiment: Experiment 10: effect of the compound on cardiac rate and PQ interval on the electrocardiogram; type: in vivo, rabbit; settings: for Cardiac rate: listed as the test compound; for Cardiac rate relative to before administration (100%) / PQ interval relative to before administration (100%): before administration (defined as 100%)
# Protocol: In this experiment, the 1-hydrochloride of the compound, 4-[3-(4-benzylpiperidin-1-yl)propionyl]-7-methoxy-2,3,4,5-tetrahydro-1,4-benzothiazepine 1-hydrochloride (hereinafter called the compound) was used as the 1,4-benzothiazepine derivative or pharmaceutically acceptable salt thereof.
# Five white rabbits (weight: 2.7-2.9 kg) were used in this experiment: a rabbit (weight 2.8 kg, Control 1) that was administered control solution, a rabbit (weight 2.7 kg, Test 10) that received the compound at 0.04 mg/kg/min, a rabbit (weight 2.7 kg, Test 11) that received the compound at 0.04 mg/kg/min, a rabbit (weight 2.9 kg, Test 12) that received the compound at 0.4 mg/kg/min, and a rabbit (weight 2.8 kg, Test 13) that received the compound at 0.4 mg/kg/min.
# Each rabbit was anesthetized with a single intravenous injection of 20 mg/kg methohexital sodium under artificial respiration (Type AR1 Narishige Group) using endotracheal intubation. Subsequently, α-chloralose was injected into the ear veins at 90 mg/kg/20 min. A DMSO solution of the compound was prepared by dissolving 100 mg of the compound in 1 ml of dimethylsulfoxide (DMSO), and stored at 4° C.
# In this experiment, injection catheters for administration of the compound and other drugs were inserted into the right external jugular veins of the rabbits, and microchip catheters (SPC-320, Millar) for blood pressure measurement were inserted via the right common arteries. A 2-lead electrocardiogram was examined, and blood pressure, cardiac rate, and electrocardiogram of the rabbits were monitored for 10 minutes. When the data stabilized, the electrocardiogram, systolic pressure and diastolic pressure of each rabbit were recorded on a personal computer via an A/D converter. The Control rabbit was administered 5% dextrose solution containing 0.1% DMSO as a control solution for 10 minutes at 0.1 ml/min. Test 10 and 11 rabbits were administered 5% dextrose containing the compound at 0.1 ml/min, and then the compound at an infusion rate of 0.04 mg/kg/min. Test 12 and 13 were administered 5% dextrose containing the compound at 0.1 ml/min, and then the compound at an infusion rate of 0.4 mg/kg/min.
# Cardiac rate and PQ interval in the Control and Test rabbits were measured before administration of the test solution, and 5 and 10 minutes after administration. The PQ interval, which is the time interval between the beginning of the P-wave and the beginning of next Q wave, reflects the conduction velocity of electrical stimulation from the atrium to the ventricle. The cardiac rates before administration of the test solution were defined as 100%, and data for the cardiac rate after administration of the compound are shown in Table 10.
# [1] = infusion rate 0.04 mg/kg/min, after 5 minutes
# [2] = infusion rate 0.04 mg/kg/min, after 10 minutes
# [3] = infusion rate 0.04 mg/kg/min, before administration
# [4] = infusion rate 0.4 mg/kg/min, after 5 minutes
# [5] = infusion rate 0.4 mg/kg/min, after 10 minutes
# [6] = infusion rate 0.4 mg/kg/min, before administration
compound,measurement,setting,value
"COc1ccc2c(c1)CN(C(=O)CCN1CCC(Cc3ccccc3)CC1)CCS2 [the compound, 4-[3-(4-benzylpiperidine-1-yl)propionyl]-7-methoxy-2,3,4,5-tetrahydro-1,4-benzothiazepine]",The amount of precipitate of myosin light chains (ratio to Test 1 = 1.0),myosin light chains; Test 3: Ca^2+ concentration 0 mol,1.5
same,The amount of precipitate of myosin light chains (ratio to Test 1 = 1.0),myosin light chains; Test 4: Ca^2+ concentration 10^−5 mol,1.4
same,Increase of PQ interval compared to before administration,"white rabbits; 0.4 mg/kg/min, 10 minutes after administration, Test 12 and Test 13 rabbits",approximately 50%
same,PQ interval,white rabbits; [1],73 milliseconds and 66 milliseconds
same,Cardiac rate,white rabbits; [1],289 min⁻¹ and 283 min⁻¹
same,PQ interval,white rabbits; [2],74 milliseconds and 68 milliseconds
same,Cardiac rate,white rabbits; [2],286 min⁻¹ and 281 min⁻¹
same,PQ interval,white rabbits; [3],71 milliseconds and 64 milliseconds
same,Cardiac rate relative to before administration (100%),white rabbits; infusion rate 0.04 mg/kg/min,(100%)
same,PQ interval relative to before administration (100%),white rabbits; infusion rate 0.04 mg/kg/min,(100%)
same,Cardiac rate,white rabbits; [3],297 min⁻¹ and 286 min⁻¹
same,PQ interval,white rabbits; [4],92 milliseconds and 82 milliseconds
same,Cardiac rate,white rabbits; [4],350 min⁻¹ and 311 min⁻¹
same,PQ interval,white rabbits; [5],107 milliseconds and 103 milliseconds
same,Cardiac rate,white rabbits; [5],157 min⁻¹ and 98 min⁻¹
same,PQ interval,white rabbits; [6],69 milliseconds and 68 milliseconds
same,Cardiac rate relative to before administration (100%),white rabbits; infusion rate 0.4 mg/kg/min,(100%)
same,PQ interval relative to before administration (100%),white rabbits; infusion rate 0.4 mg/kg/min,(100%)
same,Cardiac rate,white rabbits; [6],372 min⁻¹ and 327 min⁻¹
